Values of other authors as cited in patent publication US9862672B2, “Antioxidant-based poly(anhydride-esters)” (RUTGERS, THE STATE UNIVERSITY OF NEW JERSEY, priority 2013, dated 2018).

Conditions: in vivo

COc1cc(/C=C/C(=O)O)ccc1O [Ferulic acid]
Elimination half-life: less than 2 hours
